These results are taken from patent publication US10214491B2, “Activators and therapeutic applications thereof” (THE JOHNS HOPKINS UNIVERSITY, priority 2007, dated 2019).

This experiment deals with p53DsRed reporter in PG3/9 melanoma cells (A375 clone). The experiment is described as follows: p53DsRed reporter activation assay (in vitro p53 activity assay). Format: cell-based. Particulars: for EC50: Homo sapiens, A-375, PG3/9 melanoma cells, 24 hours, read-out: effective concentration (EC50), p53DsRed reporter activation. As to the method: The ability of the compounds to activate p53 was analyzed using a cell-based assay. To establish the assay, a stable cell transfectant expressing a p53-responsive reporter was generated. A375 melanoma cell line (ATCC CRL-1619) was transfected with a vector containing the p53 consensus element 13x repeat (13XRE) (Kern et al., 1991) cloned to a DsRed Express reporter vector (Clontech) to yield the vector “PG13DsRed”, hereafter termed as “p53DsRed”. […] The cell clone PG3/9 was used in the screen.
The assay was carried out in a 96-well format and all plate handlings were done using liquid handling robots (Thermo CRS, Thermo Electron Corporation; Biomek FX, Beckman Coulter and Hamilton STAR, Hamilton Microlab). Cells were plated at 10,000 cells/100 μL/well onto 96-well ViewPlates (Packard) and incubated overnight at +37° C. and 5% CO2. Small molecule compound chemical libraries were purchased and diluted to dimethylsulfoxide (DMSO) at 10 mM concentration. The compounds were pin-transferred to plain media at approximately 3 μM concentration either as single (one compound/one well) or pools of compounds (two compounds/one well). The growth media was removed and replaced with media with the test compounds followed by incubation of the cells for 24 h at +37° C. and 5% CO2. […] Following the incubation, the cells were washed with phosphate buffered saline and fixed with paraformaldehyde (PFA, 4%, 25 min, RT) and cell nuclei were stained with Hoechst 33342 (Molecular Probes, 4 μg/mL, 2 min, RT).
The fluorescence signals of Hoechst 33342 and DsRed reporter expression in the fixed cells were analyzed using ArrayScan 4.5 high-content screening platform (Cellomics) including an inverted microscope (Zeiss 200M) with 10× objective (Zeiss), Omega XF93 filter (Omega), ORCA-AG CCD camera (Hamamatsu). The algorithm used for image acquisition and analysis was Target Activation Bioapplication (Cellomics), which was set to analyse the total number of cells and the percentage of p53 reporter positive cells termed as “responders”. For each well, four images on both fluorescence channels were acquired corresponding to approximately 1700 cells in mock-treated wells. The mean number of responders was calculated for each well, and compounds causing reporter activation for more than two times the mean number of responders in the mock treated cells in each plate were regarded as hits.
In the secondary screen the hits were collected and tested over 100 nM to 10 μM concentration range. The compound treatment time, cell fixations and stainings as well as fluorescence signal detection was as described above. Compounds providing consistent p53DsRed reporter activation at low μM concentration range were selected for further testing. The effective concentration 50 (EC50) was calculated using the following formula: […]

With `CN(C)CCNC(=O)c1cccn2c(=O)c3cc4ccccc4cc3nc12` [Compound 21], the EC50 is 300 nM.

Take `Cc1cc(C)c2nc3nc(C)cc(C)c3c(N)c2c1` [Compound 22, 2,4,7,9-tetramethylbenzo[b]-1,8-naphthyridin-5-amine]: the EC50 turned out to be 2600 nM. The “fraction of p53-reporter activated cells at high concentrations” value (high concentrations, apparently due to excessive cell death) is recorded as “decrease in the fraction of p53-reporter activated cells”.
